This test addresses Nucleic Acid. Briefly: Dissociation constant using ethidium-bromide displacement test. Format: nucleic-acid assay.

pKd: −log10 of the molar value. Numbered stars: 1 amine (or outer) side, 2 acyl side, 3 side chain; on linkers, the order of the positions; unused ones are H or OH. Square brackets hold non-standard residues; d marks the D form. Peptide text beside a SMILES is read from it. Ala(2,4-dioxoquinazolin-3-yl) = N[C@@H](Cn1c(=O)[nH]c2ccccc2c1=O)C(=O)O; Ala(uracil-1-yl) = N[C@@H](Cn1ccc(=O)[nH]c1=O)C(=O)O; X2 = Cc1cn(C[C@H](N[*:1])C(=O)[*:2])c(=O)[nH]c1=O; X3 = Nc1ccn(C[C@H](N[*:1])C(=O)[*:2])c(=O)n1; X1 = Nc1ncnc2c1ncn2C[C@H](N[*:1])C(=O)[*:2]; 2Thi = N[C@@H](Cc1cccs1)C(=O)O; Sar = CNCC(=O)O

Regarding `CC(=O)N[C@@H](CCCN=C(N)N)C(=O)N[C@@H](Cn1ccc(=O)[nH]c1=O)C(=O)N(C)CC(=O)N[C@@H](Cn1c(=O)[nH]c2ccccc2c1=O)C(=O)N[C@@H](Cn1c(=O)[nH]c2ccccc2c1=O)C(=O)N[C@@H](Cc1cccs1)C(=O)N[C@@H](CCCN=C(N)N)C(N)=O` (Ac-R[Ala(uracil-1-yl)][Sar][Ala(2,4-dioxoquinazolin-3-yl)][Ala(2,4-dioxoquinazolin-3-yl)][2Thi]R-NH2), the negative-log Kd (pKd) is 3.64.

In the case of `CC(=O)N[C@@H](CCCN=C(N)N)C(=O)N[C@@H](Cn1ccc(=O)[nH]c1=O)C(=O)N(C)CC(=O)N[C@@H](Cn1c(=O)[nH]c2ccccc2c1=O)C(=O)N[C@@H](Cn1c(=O)[nH]c2ccccc2c1=O)C(=O)N[C@@H](Cn1c(=O)[nH]c2ccccc2c1=O)C(=O)N[C@@H](CCCN=C(N)N)C(N)=O` (Ac-R[Ala(uracil-1-yl)][Sar][Ala(2,4-dioxoquinazolin-3-yl)][Ala(2,4-dioxoquinazolin-3-yl)][Ala(2,4-dioxoquinazolin-3-yl)]R-NH2), the pKd is 4.04.

In turn, `CC(=O)N[C@@H](CCCN=C(N)N)C(=O)N[C@@H](Cn1ccc(=O)[nH]c1=O)C(=O)N(C)CC(=O)N[C@@H](Cn1c(=O)[nH]c2ccccc2c1=O)C(=O)N[C@@H](Cn1c(=O)[nH]c2ccccc2c1=O)C(=O)N[C@@H](Cn1ccc(=O)[nH]c1=O)C(=O)N[C@@H](CCCN=C(N)N)C(N)=O` (Ac-R[Ala(uracil-1-yl)][Sar][Ala(2,4-dioxoquinazolin-3-yl)][Ala(2,4-dioxoquinazolin-3-yl)][Ala(uracil-1-yl)]R-NH2) gave a pKd of 3.21.

`CC(=O)N[C@@H](CCCN=C(N)N)C(=O)N[C@@H](Cn1ccc(=O)[nH]c1=O)C(=O)N(C)CC(=O)N[C@@H](Cn1c(=O)[nH]c2ccccc2c1=O)C(=O)N[C@@H](Cn1c(=O)[nH]c2ccccc2c1=O)C(=O)N[C@@H](Cn1cnc2c(N)ncnc21)C(=O)N[C@@H](CCCN=C(N)N)C(N)=O` (Ac-R[Ala(uracil-1-yl)][Sar][Ala(2,4-dioxoquinazolin-3-yl)][Ala(2,4-dioxoquinazolin-3-yl)][X1]R-NH2) showed a pKd of 3.41.

`CC(=O)N[C@@H](CCCN=C(N)N)C(=O)N[C@@H](Cn1ccc(=O)[nH]c1=O)C(=O)N(C)CC(=O)N[C@@H](Cn1c(=O)[nH]c2ccccc2c1=O)C(=O)N[C@@H](Cn1c(=O)[nH]c2ccccc2c1=O)C(=O)N[C@@H](Cn1cc(C)c(=O)[nH]c1=O)C(=O)N[C@@H](CCCN=C(N)N)C(N)=O` (Ac-R[Ala(uracil-1-yl)][Sar][Ala(2,4-dioxoquinazolin-3-yl)][Ala(2,4-dioxoquinazolin-3-yl)][X2]R-NH2): the pKd is 3.31.

Consider `CC(=O)N[C@@H](CCCN=C(N)N)C(=O)N[C@@H](Cn1ccc(=O)[nH]c1=O)C(=O)N(C)CC(=O)N[C@@H](Cn1c(=O)[nH]c2ccccc2c1=O)C(=O)N[C@@H](Cn1c(=O)[nH]c2ccccc2c1=O)C(=O)N[C@@H](Cn1ccc(N)nc1=O)C(=O)N[C@@H](CCCN=C(N)N)C(N)=O` (Ac-R[Ala(uracil-1-yl)][Sar][Ala(2,4-dioxoquinazolin-3-yl)][Ala(2,4-dioxoquinazolin-3-yl)][X3]R-NH2), for which the pKd was 3.20.

For `CC(=O)N[C@@H](CCCN=C(N)N)C(=O)N[C@@H](Cn1ccc(=O)[nH]c1=O)C(=O)N(C)CC(=O)N[C@@H](Cn1cc(C)c(=O)[nH]c1=O)C(=O)N[C@@H](Cn1c(=O)[nH]c2ccccc2c1=O)C(=O)N[C@@H](Cn1cnc2c(N)ncnc21)C(=O)N[C@@H](CCCN=C(N)N)C(N)=O` (Ac-R[Ala(uracil-1-yl)][Sar][X2][Ala(2,4-dioxoquinazolin-3-yl)][X1]R-NH2), the negative logarithm of the Kd (pKd) was 3.66.

Usually pKd stands for the Kd on a negative log10 scale, so that one unit is a factor of ten. Read a low pKd as a large Kd.

The values above are taken from ChEMBL document CHEMBL1136420, “Comparison of library screening techniques used in the development of dsDNA ligands” (Bioorg Med Chem Lett, 2003).
